Like-named read-outs stand apart in the source and are kept apart here.
What was measured:
Assay in all cases: cells
Parameters in all cases: species or system NCI-60 human tumour cell lines; NCI-60 one-dose screen at 10 uM, percent growth inhibition versus untreated control cells
K-562 = conditions: Homo sapiens, K562, growth inhibition, one dose
NCI-H522 = conditions: Homo sapiens, NCI-H522, growth inhibition, one dose
SF-539 = conditions: Homo sapiens, SF-539, growth inhibition, one dose
OVCAR-4 = conditions: Homo sapiens, OVCAR-4, growth inhibition, one dose
KM12 = conditions: Homo sapiens, KM12, growth inhibition, one dose
COLO 205 = conditions: Homo sapiens, COLO 205, growth inhibition, one dose
MDA-MB-468 = conditions: Homo sapiens, MDA-MB-468, growth inhibition, one dose
NCI/ADR-RES = conditions: Homo sapiens, NCI/ADR-RES, growth inhibition, one dose
HCT-116 = conditions: Homo sapiens, HCT-116, growth inhibition, one dose
RXF 393 = conditions: Homo sapiens, RXF 393, growth inhibition, one dose
TK-10 = conditions: Homo sapiens, TK-10, growth inhibition, one dose
SK-OV-3 = conditions: Homo sapiens, SK-OV-3, growth inhibition, one dose
OVCAR-8 = conditions: Homo sapiens, OVCAR-8, growth inhibition, one dose
HT29 = conditions: Homo sapiens, HT-29, growth inhibition, one dose
NCI-H23 = conditions: Homo sapiens, NCI-H23, growth inhibition, one dose
SF-295 = conditions: Homo sapiens, SF-295, growth inhibition, one dose
[1] = read-out: Growth% inhibition / 5a
[2] = read-out: Growth% inhibition / 5e
[3] = read-out: Growth% inhibition / 5d
[4] = read-out: Growth% inhibition / 5b
[5] = read-out: Growth% inhibition / 5h

SMILES: O=C(/C=C/C=C/c1ccc2c(c1)OCO2)NN=Cc1ccc(O)cc1 [5a, (2E,4E)-5-(Benzo[d][1,3]dioxol-5-yl)-N′-((E,Z)-4-hydroxybenzylidene)penta-2,4-dienehydrazide]
- inhibition at 10 µM (K-562; [1]): 58.8%
- inhibition at 10 µM (NCI-H522; [1]): 22.8%
- inhibition at 10 µM (SF-539; [1]): 17.6%
- inhibition at 10 µM (OVCAR-4; [1]): 12.7%
- inhibition at 10 µM (KM12; [1]): 33.4%

SMILES: CCN(CC)c1ccc(/C=N/NC(=O)/C=C/C=C/c2ccc3c(c2)OCO3)c(O)c1 [5e, (2E,4E)-5-(Benzo[d][1,3]dioxol-5-yl)-N′-((E)-4-(diethylamino)-2-hydroxybenzylidene)penta-2,4-dienehydrazide]
- inhibition at 10 µM (COLO 205; [2]): 60.1%
- inhibition at 10 µM (K-562; [2]): 82.4%
- inhibition at 10 µM (MDA-MB-468; [2]): 86.6%
- inhibition at 10 µM (NCI-H522; [2]): 87.5%
- inhibition at 10 µM (SF-539; [2]): 77.3%
- inhibition at 10 µM (NCI/ADR-RES; [2]): 82.5%
- inhibition at 10 µM (HCT-116; [2]): 92.1%
- inhibition at 10 µM (RXF 393; [2]): 27.4%
- inhibition at 10 µM (TK-10; [2]): 62.2%
- inhibition at 10 µM (SK-OV-3; [2]): 60.5%
- inhibition at 10 µM (OVCAR-8; [2]): 67.1%
- inhibition at 10 µM (OVCAR-4; [2]): 84.7%
- inhibition at 10 µM (KM12; [2]): 69.8%
- inhibition at 10 µM (HT29; [2]): 32.2%
- inhibition at 10 µM (NCI-H23; [2]): 50.3%
- inhibition at 10 µM (SF-295; [2]): 58.3%

SMILES: CN(C)c1ccc(C=NNC(=O)/C=C/C=C/c2ccc3c(c2)OCO3)cc1 (mixture of isomers) [5d, (2E,4E)-5-(Benzo[d][1,3]dioxol-5-yl)-N′-((E/Z)-4-(dimethylamino)-benzylidene)penta-2,4-dienehydrazide]
- inhibition at 10 µM (K-562; [3]): 56.1%
- inhibition at 10 µM (NCI-H522; [3]): 11.7%
- inhibition at 10 µM (KM12; [3]): 14.2%

SMILES: O=C(/C=C/C=C/c1ccc2c(c1)OCO2)N/N=C/c1ccc(O)cc1O [5b, (2E,4E)-5-(Benzo[d][1,3]dioxol-5-yl)-N′-((E)-2,4-dihydroxybenzylidene)penta-2,4-dienehydrazide]
- inhibition at 10 µM (COLO 205; [4]): 86%
- inhibition at 10 µM (K-562; [4]): 88.4%
- inhibition at 10 µM (NCI-H522; [4]): 78.9%
- inhibition at 10 µM (SF-539; [4]): 85.7%
- inhibition at 10 µM (NCI/ADR-RES; [4]): 94.8%
- inhibition at 10 µM (HCT-116; [4]): 91.3%
- inhibition at 10 µM (RXF 393; [4]): 42.1%
- inhibition at 10 µM (TK-10; [4]): 69%
- inhibition at 10 µM (SK-OV-3; [4]): 73%
- inhibition at 10 µM (OVCAR-8; [4]): 77.2%
- inhibition at 10 µM (OVCAR-4; [4]): 90.8%
- inhibition at 10 µM (KM12; [4]): 76.6%
- inhibition at 10 µM (HT29; [4]): 51.9%
- inhibition at 10 µM (NCI-H23; [4]): 70%
- inhibition at 10 µM (SF-295; [4]): 86.2%

SMILES: C/C(=N\NC(=O)/C=C/C=C/c1ccc2c(c1)OCO2)c1ccc(Br)cc1 [5h, (2E,4E)-5-(Benzo[d][1,3]dioxol-5-yl)-N′-((E)-1-(4-bromophenyl)ethylidene)penta-2,4-dienehydrazide]
- inhibition at 10 µM (K-562; [5]): 40.1%
- inhibition at 10 µM (MDA-MB-468; [5]): 29.3%
- inhibition at 10 µM (NCI-H522; [5]): 19.9%
- inhibition at 10 µM (SF-539; [5]): 12.5%
- inhibition at 10 µM (NCI/ADR-RES; [5]): 33.9%
- inhibition at 10 µM (HCT-116; [5]): 12.3%
- inhibition at 10 µM (OVCAR-8; [5]): 24.7%
- inhibition at 10 µM (OVCAR-4; [5]): 65.2%
- inhibition at 10 µM (KM12; [5]): 24.9%
